Measurements from the OligoGym collection.
Bases are written 5' to 3'; sugars and linkages follow in the same order, as letters with counts (s phosphorothioate, o phosphodiester; PS: all linkages phosphorothioate). The collection does not say whether C is 5-methylated. l = locked nucleic acid (LNA); d = 2'-deoxy (DNA)

These sequences were tested against Tau (assay: rat primary cortical neurons, FLIPR, 25 uM ASO).

Compared with “TATTTCCAAATTCACTTTTA (sugars llddldldddddddddllll, PS)”, “TATTTCCAAATTCACTTTTA (sugars lldllddddddddddlldll, PS)” is lower in calcium oscillation score: 152 % of control for the first, 119 % of control for the second.

Going from ACTGATCATAATCCTA (sugars l3 d9 l4, PS) to AAGAGGGCAGCAGGCC (sugars l3 d10 l3, PS), the calcium oscillation score falls from 81.1 % of control to 73.1 % of control.

Compared with “ACCACATTATCATCCATTCT (sugars l3 d14 l3, PS)”, “ATCATTTTTTATTCATAACT (sugars l4 d12 l4, PS)” is higher in calcium oscillation score: 32.2 % of control for the first, 53.4 % of control for the second.

Going from GGCCACCTCCTGGTTT (sugars l3 d10 l3, PS) to “CTACTATTTACTATGCA (sugars l4 d10 l3, PS)”, the calcium oscillation score rises from 39.3 % of control to 78.4 % of control.

First: TGTAGACTATTTGCACACTG (sugars l3 d14 l3, PS)
Second: TTTAGCAGAGGAACGT (sugars l3 d10 l3, PS)
The calcium oscillation score of the first is lower: 7.41 % of control for the first, 15.6 % of control for the second.

Compared with “TCCCTAATCCCCAAAGA (sugars l2 d13 l2, PS)”, GTCACCACTTTAATCT (sugars l4 d9 l3, PS) is higher in calcium oscillation score: 53.9 % of control for the first, 85.3 % of control for the second.

First: CTACCATGTCGATGCT (sugars l3 d10 l3, PS)
Second: AGCCCTAAAGTCCCAG (sugars l3 d10 l3, PS)
The calcium oscillation score of the first is higher: 99.7 % of control for the first, 38.1 % of control for the second.

First: TGCTCAGCTAAGACCCTCAG (sugars l3 d14 l3, PS)
Second: ACTTACTGATCATAAT (sugars l4 d8 l4, PS)
The calcium oscillation score of the first is lower: 29.4 % of control for the first, 77.2 % of control for the second.

Compared with “CTTTGTAATTCCTTCTCT (sugars l2 d13 l3, PS)”, “TTATTTCCAAATTCACTTTT (sugars llddlldddddddddldlll, PS)” is higher in calcium oscillation score: 63.3 % of control for the first, 123 % of control for the second.

First: ACTTTATTTCCAAATTCACTTTTAC (sugars l4 d16 l2 d1 l2, PS)
Second: TTGGATCAGAGGGTCT (sugars l3 d10 l3, PS)
The calcium oscillation score of the first is higher: 29.5 % of control for the first, 11.1 % of control for the second.

Going from “CCCACATTATATCAGTA (sugars l2 d12 l3, PS)” to TTCATCACCAAGTCCC (sugars l3 d11 l2, PS), the calcium oscillation score falls from 80.7 % of control to 51.4 % of control.

Compared with CCTTTTCATGTTAAATC (sugars l4 d9 l4, PS), TTACACCATCCAAGTC (sugars l4 d9 l3, PS) is higher in calcium oscillation score: 86.6 % of control for the first, 101 % of control for the second.

Going from GAGTCTACCATGTCGA (sugars l3 d10 l3, PS) to “GTGATTAACCAATTAACCGA (sugars l3 d14 l3, PS)”, the calcium oscillation score falls from 65.2 % of control to 6.48 % of control.

Compared with “AGCCTCTAGCCACATGGACC (sugars l3 d14 l3, PS)”, TTTGTAGACTATTTGC (sugars l3 d10 l3, PS) is lower in calcium oscillation score: 16.1 % of control for the first, 0 % of control for the second.

First: CATTTACCAATTATCTTTAA (sugars l4 d12 l4, PS)
Second: TTTACCAATTTGCCTAA (sugars l4 d9 l4, PS)
The calcium oscillation score of the first is higher: 72 % of control for the first, 43.1 % of control for the second.

Compared with TGTCGATGCTGCCGGT (sugars l3 d10 l3, PS), “TCCAGGGACCCAATCTTCGA (sugars l3 d14 l3, PS)” is lower in calcium oscillation score: 34.5 % of control for the first, 0 % of control for the second.

Compared with “CTTTATTTCCAAATTCAC (sugars l5 d9 l1 d1 l2, PS)”, “TTTGCTTCACACACCAC (sugars l2 d12 l3, PS)” is lower in calcium oscillation score: 119 % of control for the first, 89 % of control for the second.

Compared with “AGCTTGTGGGTTTCAATCTT (sugars l3 d14 l3, PS)”, “CTTTCCTAATTCCCAAATTC (sugars l3 d15 l2, PS)” is higher in calcium oscillation score: 0 % of control for the first, 60.9 % of control for the second.

First: GGTGCTCTGGTCAA (sugars l3 d8 l3, PS)
Second: CGTGGGTGATATTGTCCAGG (sugars l3 d14 l3, PS)
The calcium oscillation score of the first is higher: 102 % of control for the first, 0 % of control for the second.

Going from CCCTTAATTTCACCC (sugars l3 d9 l3, PS) to CGCGGAAGGTCAGCTT (sugars l3 d10 l3, PS), the calcium oscillation score falls from 103 % of control to 33.3 % of control.

Compared with TACAATCCACTCCTCC (sugars l2 d10 l4, PS), CAACATTTGCACTCTC (sugars l4 d8 l4, PS) is higher in calcium oscillation score: 56.4 % of control for the first, 67.7 % of control for the second.

Compared with “ATGAGCCACACTTGGAGGTC (sugars l3 d14 l3, PS)”, “GCTTTCCAATTCCCCAT (sugars l2 d12 l3, PS)” is higher in calcium oscillation score: 19.9 % of control for the first, 94.5 % of control for the second.

Compared with “CATAATCCTACCACCAG (sugars l2 d12 l3, PS)”, GAACTATTGATAAA (sugars l3 d8 l3, PS) is higher in calcium oscillation score: 61.3 % of control for the first, 85.7 % of control for the second.

Compared with “CGCCAGGGACGTGGGTGATA (sugars l3 d14 l3, PS)”, TCCTCCATTGTAACTA (sugars l4 d10 l2, PS) is higher in calcium oscillation score: 0 % of control for the first, 85.3 % of control for the second.

Going from “ACCCACTTTCCTAATTCCCA (sugars l1 d17 l2, PS)” to “ATTTCCAAATTCACTTTTAC (sugars l3 d14 l3, PS)”, the calcium oscillation score rises from 76.6 % of control to ≥ 200 % of control.

Compared with GATGCAGGAGTTGTAA (sugars l3 d10 l3, PS), “CCCGCCTTTAGTGATTACAG (sugars l3 d14 l3, PS)” is higher in calcium oscillation score: 0 % of control for the first, 2.38 % of control for the second.

Compared with “CTTTATTTCCAAATTCACTT (sugars l2 d1 l1 d12 l4, PS)”, “CTTTATTTCCAAATTCAC (sugars l4 d10 l4, PS)” is higher in calcium oscillation score: 44.7 % of control for the first, 110 % of control for the second.

Going from GAACTGGTTAGCCCTA (sugars l3 d10 l3, PS) to “CAGCCTACTTTATTCCC (sugars l2 d13 l2, PS)”, the calcium oscillation score falls from 79.9 % of control to 79.2 % of control.

First: TCACCACTTTAATCTGCC (sugars l2 d14 l2, PS)
Second: CTGGTTTGTAGACTATTTGC (sugars l3 d14 l3, PS)
The calcium oscillation score of the first is higher: 69 % of control for the first, 0 % of control for the second.

Going from “TCTTAGCATCAGAGGTTTCA (sugars l3 d14 l3, PS)” to GGATGTTGCCTAATGA (sugars l3 d10 l3, PS), the calcium oscillation score falls from 18.5 % of control to 0 % of control.

Compared with “CCTCCCTTTAATGCCAGGCC (sugars l3 d14 l3, PS)”, “CTCTTTCTTAATTCAGA (sugars l4 d10 l3, PS)” is higher in calcium oscillation score: 34.2 % of control for the first, 60.1 % of control for the second.

Going from CACAAGTCCTTACAAA (sugars l3 d10 l3, PS) to “ATTCCACACATAAACAAACA (sugars l4 d12 l4, PS)”, the calcium oscillation score falls from 194 % of control to 63.8 % of control.

First: GGAGGCAGACACCTCGTCAG (sugars l3 d14 l3, PS)
Second: CTTTTGAACCCATTCCAC (sugars l3 d13 l2, PS)
The calcium oscillation score of the first is lower: 51.8 % of control for the first, 110 % of control for the second.

Going from “TGCTCTTAGCATCAGAGGTT (sugars l3 d14 l3, PS)” to GGGCGAGTCTACCATG (sugars l3 d10 l3, PS), the calcium oscillation score falls from 25.9 % of control to 16.3 % of control.

First: GCAATAGCAAACAGG (sugars l3 d9 l3, PS)
Second: TCCCCACCCAAACTCCAA (sugars l2 d14 l2, PS)
The calcium oscillation score of the first is lower: 40.8 % of control for the first, 76.5 % of control for the second.

Going from “TCCTGGCCATCTTATGCTGA (sugars l3 d14 l3, PS)” to “CTTTTCCCAATTATTAAC (sugars l4 d10 l4, PS)”, the calcium oscillation score rises from 31.2 % of control to 60.1 % of control.

First: ACCATCATACTCCAAGT (sugars l3 d12 l2, PS)
Second: TGATCTTAGGCTGGC (sugars l3 d9 l3, PS)
The calcium oscillation score of the first is higher: 77.7 % of control for the first, 44.1 % of control for the second.

Going from GGTCTGGCATGGGC (sugars l3 d8 l3, PS) to “CAACAAACATCTAAACACCT (sugars l4 d13 l3, PS)”, the calcium oscillation score rises from 0 % of control to 78.9 % of control.

Compared with “TATTTCCAAATTCACTTTTA (sugars l1 d17 l2, PS)”, TCCTAATCCTGTGCT (sugars l3 d9 l3, PS) is lower in calcium oscillation score: ≥ 200 % of control for the first, 140 % of control for the second.

Going from “CTTTATTTCCAAATTCACT (sugars l4 d10 l5, PS)” to “GCTTAATAAACACCCTT (sugars l2 d11 l4, PS)”, the calcium oscillation score falls from 108 % of control to 68.5 % of control.

First: CTCTTCCACTACAAGCTC (sugars l3 d13 l2, PS)
Second: ATTTCCAAATTCACTTTTAC (sugars lllddldddddddddldlll, PS)
The calcium oscillation score of the first is lower: 28.9 % of control for the first, 125 % of control for the second.

Compared with TATTTATAGGTGCATA (sugars l3 d9 l4, PS), “CAATTCTCATTTCAACCTTC (sugars l2 d14 l4, PS)” is higher in calcium oscillation score: 0 % of control for the first, 54.1 % of control for the second.

Going from “CTCTTGACAGTCACTGCTGA (sugars l3 d14 l3, PS)” to CCCTAAGCTCTCACTA (sugars l2 d12 l2, PS), the calcium oscillation score rises from 29.4 % of control to 69.1 % of control.

First: TCTTCCATCACTTCGAACTC (sugars l3 d14 l3, PS)
Second: TGTCCAAACTTTTACT (sugars l4 d8 l4, PS)
The calcium oscillation score of the first is lower: 45.2 % of control for the first, 60.8 % of control for the second.

First: CTTTATTTCCAAATTCACTT (sugars l3 d1 l1 d11 l4, PS)
Second: TATTTCCAAATTCACTTTTA (sugars llldldddddddddllddll, PS)
The calcium oscillation score of the first is lower: 129 % of control for the first, 135 % of control for the second.

Compared with CATAGTCACTCTGGTG (sugars l3 d10 l3, PS), “TGGTTTATGATGGATGTTGC (sugars l3 d14 l3, PS)” is lower in calcium oscillation score: 1.9 % of control for the first, 0 % of control for the second.

Compared with “GGCGAGTCTACCATGTCGAT (sugars l3 d14 l3, PS)”, GAAAGAGGGCAGCAGG (sugars l3 d10 l3, PS) is lower in calcium oscillation score: 91.5 % of control for the first, 0 % of control for the second.

Compared with “CCACCTCCTAGAACACA (sugars l2 d13 l2, PS)”, “TCTTCCTTTGTAATTCCT (sugars l3 d13 l2, PS)” is higher in calcium oscillation score: 50.9 % of control for the first, 57.9 % of control for the second.

Compared with “TTACCATCCTATCTTCTA (sugars l2 d13 l3, PS)”, “TCCAAAACATTCTCACCAAA (sugars l4 d14 l2, PS)” is lower in calcium oscillation score: 90.3 % of control for the first, 85.7 % of control for the second.

Going from “TTTCCTGCAAATTCTCA (sugars l4 d10 l3, PS)” to “CCAGCGTGATCTTCCATCAC (sugars ldlllddddddddddlldll, PS)”, the calcium oscillation score rises from 66.8 % of control to 124 % of control.

Compared with AACATCATGTCACACA (sugars l4 d8 l4, PS), “TACCCATCTTAATTCATTTA (sugars l3 d14 l3, PS)” is higher in calcium oscillation score: 56.3 % of control for the first, 111 % of control for the second.

Compared with “CTCGCGGAAGGTCAGCTTGT (sugars l3 d14 l3, PS)”, “ATTCATTTTACTTTACTTTT (sugars l4 d12 l4, PS)” is higher in calcium oscillation score: 2.91 % of control for the first, 88.6 % of control for the second.

First: CTTTATTTCCAAATTCACT (sugars l3 d11 l1 d1 l3, PS)
Second: TTTGGCGTTCTCGC (sugars l3 d8 l3, PS)
The calcium oscillation score of the first is higher: 116 % of control for the first, 28.7 % of control for the second.

With “ACCCTTAGACATAACAC (sugars l3 d10 l4, PS)” the calcium oscillation score was 59.7 % of control.
